According to patent publication US8980866B2, “Complex obtained from hyaluronic acid or a salt thereof and chondroitin sulphate mixtures” (Quimera Ingenieria Biomedica, S.L., priority 2011, dated 2015):

Assay: Apparent viscosity by rheometry (HAAKE RheoStress RS300, stress controlled mode, Cross model)
Assay type: physicochemical
Settings: for Viscosity, γ = 1: shear rate 1 s^−1, 25° C.; for Viscosity, γ = 1 / Viscosity, γ = 10 / Viscosity, γ = 100 / Viscosity, γ = 200: Milli-Q water, concentration per Table 3; for Viscosity, γ = 10: shear rate 10 s^−1, 25° C.; for Viscosity, γ = 100: shear rate 100 s^−1, 25° C.; for Viscosity, γ = 200: shear rate 200 s^−1, 25° C.
Experimental: Aqueous solutions of HA:CS mixtures (control) and atomized complexes at different weight ratios of sodium hyaluronate and chondroitin sulphate were prepared for rheological characterization. Their rheological profile was determined using a HAAKE RheoStress RS300 rheometer in stress controlled mode. A 1° cone and 35 mm diameter plate was used.
Controls and 1:1 and 1:10 complexes were reconstituted in Milli-Q water.
Based on an applied shear stress, viscosity of the samples was measured at 25° C. All samples fitted in a Cross model, which allowed to compare the results obtained.

## sodium hyaluronate [Sample 2]
  Viscosity, γ = 1: 3378.5 mPa · s
  Viscosity, γ = 10: 1924.5 mPa · s
  Viscosity, γ = 100: 522.0 mPa · s
  Viscosity, γ = 200: 326.5 mPa · s
Shear rate 1 s^−1, difference in viscosity of a sample with respect its control
  Viscosity loss, γ = 1: 30.8%
Shear rate 10 s^−1, difference in viscosity of a sample with respect its control
  Viscosity loss, γ = 10: 16.5%
Shear rate 100 s^−1, difference in viscosity of a sample with respect its control
  Viscosity loss, γ = 100: 9.6%
Shear rate 200 s^−1, difference in viscosity of a sample with respect its control
  Viscosity loss, γ = 200: 12.9%

## sodium hyaluronate [Sample 1]
  Viscosity, γ = 1: 4884.3 mPa · s
  Viscosity, γ = 10: 2307.0 mPa · s
  Viscosity, γ = 100: 578.0 mPa · s
  Viscosity, γ = 200: 375.0 mPa · s
